The source of these data is US20130316374A1, “BREAST CANCER DIAGNOSTICS” (IMBA - INSTITUT FUR MOLEKULARE BIOTECHNOLOGIE GMBH, priority 2010, published 2013).

“Also recorded” adds a separate entry of the source.

One assay has as its system RANKL. Kind of assay: RANKL expression in purified mammary epithelial cells (qRT-PCR, Western blot). The class given is in vivo, mouse. The conditions noted are these: nulliparous wild type females, 3 days after implantation/oral gavage. The method, then: a,b, MPA induces RANKL expression in mammary epithelial cells. Nulliparous wild type females were treated with oral gavage of DMBA or oil vehicle, s.c. implanted with slow-release MPA pellets, or treated with sham surgery. a, RANKL mRNA was determined in purified mammary epithelial cells by qRT-PCR 3 days after implantation/oral gavage. Data are shown as fold change compared to sham treatment+/−sem. n=3 mice per group. b, Expression of soluble (s) RANKL protein (19 kDa) was assayed on cell lysates from purified mammary epithelial cells by Western blot 3 days after treatment with oil vehicle, DMBA, MPA, or sham surgery. β-actin is shown as a loading control. […] Data are shown as percentage of tumor-free mice after the last DMBA challenge. No significant difference was found between the Cre+ and the Cre− control groups. Median tumor onset for Cre^+ controls was 9 days, for Cre^− controls 11 days, and for RANK^Δmam females 30 days after the last DMBA treatment. d, Representative Southern blot of MPA/DMBA-induced mammary tumors derived from RANK^flox/+; MMTV-Cre+ and RANK^flox/Δ; MMTV-Cre+ (RANK^Δmam) females. […]
Total RNA of tumors was prepared using the RNeasy Mini Kit (Qiagen), according to the manufacturer's instructions. Total RNA (2 μg) was subjected to quantitative (q)RT-PCR analysis. […]
On the technique in general: Quantitative PCR measures a nucleic acid by following its amplification.

A further assay has as its system mammary epithelial cells. As to the kind of experiment: γ-irradiation induced mammary epithelial cell apoptosis in vivo (active Caspase 3). Particulars: 5 Gray. Set-up: species or system mouse. The method, then:
a, Western blotting for phosphorylated (P) IKKα, total IKKα, phosphorylated (P) p65 NFκB, total p65 NFκB, phosphorylated (P) IκBα, and total IκBα in isolated primary mouse mammary gland epithelial cells (MECs) in response to RANKL stimulation (1 μg/ml). […] Expression was determined by qRT-PCR. […] Apoptosis was detected by immunostaining for active Caspase 3. f, Apoptotic nuclei of epithelial cells (arrows) are shown for representative mammary gland sections. Magnifications ×40. g, Quantification of mammary epithelial apoptosis. A minimum of 5000 nuclei was counted for each mouse. […]
a,b, Reduced induction of mammary epithelial cell apoptosis in response to γ-irradiation in IKKαhu Δmam females. […] 24 hours after irradiation, apoptosis was detected by immunostaining for active Caspase 3. a, Apoptotic nuclei of epithelial cells (arrows) are shown for representative mammary gland sections. Magnifications ×40. b, Quantification of mammary epithelial apoptosis. A minimum of 5000 nuclei was counted for each mouse. […]
For histological analysis, 5 μm sections were cut and stained with hematoxylin and eosin (H&E). […] Histomorphometric indices (proliferation and apoptosis) were calculated as the number of positive epithelial cells divided by the total number of epithelial cells, with no fewer than 1000 nuclei for Ki67 stainings and no fewer than 5000 cells for active Caspase 3 staining counted per section. […]

In assay [1] the test system is human SKBR3 breast cancer cells. Kind of assay: Soft-Agar Colony Formation Assay. The conditions noted are these: RANKL (1 μg/ml), 18 days in culture. The class given is cell-based. The method, then:
a, Western blotting for phosphorylated (P) IKKα, total IKKα, phosphorylated (P) p65 NFκB, total p65 NFκB, phosphorylated (P) IκBα, and total IκBα in isolated primary mouse mammary gland epithelial cells (MECs) in response to RANKL stimulation (1 μg/ml). […] is shown as loading control. b, Western blotting for IKKα, IKKβ, IKKγ, phosphorylated (P) p65 NFκB, total p65 NFκB, phosphorylated (P) IκBα, and total IκBα in pooled late stage mammary adenocarconimas (n=4 for each lane) that developed in control, RANK^Δmam, and IKKα^Δmam females. β-actin is shown as loading control c, Expression of RANK, CyclinD1, and p21 mRNA in late stage mammary adenocacinomas that developed in control, RANK^Δmam, and IKKα^Δmam females. Expression was determined by qRT-PCR. Data are mean values+/−sem. n=4 per group. d, Soft-Agar Colony Formation Assay. Growth of human SKBR3 breast cancer cells in soft agar in response to stimulation with RANKL (1 μg/ml) or EGF (100 ng/ml). […] Apoptosis was detected by immunostaining for active Caspase 3. f, Apoptotic nuclei of epithelial cells (arrows) are shown for representative mammary gland sections. Magnifications ×40. g, Quantification of mammary epithelial apoptosis. A minimum of 5000 nuclei was counted for each mouse. […]

On to `CC(=O)O[C@]1(C(C)=O)CC[C@H]2[C@@H]3C[C@H](C)C4=CC(=O)CC[C@]4(C)[C@H]3CC[C@@]21C` [MPA, medroxyprogesterone acetate], for which the “RANKL mRNA and protein expression in mammary epithelial cells” value in the assay with RANKL is “induced RANKL mRNA and protein expression”. Further, in the assay with mammary epithelial cells (control females, MPA pellet), the “γ-irradiation-induced apoptosis of mammary epithelial cells” value is given as “protected from γ-irradiation-induced apoptosis”. Also, the “protective effects of MPA on γ-irradiation-induced cell death” value in the assay on mammary epithelial cells (loss of RANK expression on mammary epithelial cells (RANK^Δmam)) is “abrogated”.

B1: RANKL: Receptor Activator of NF-κB Ligand; recombinant murine RANKL used for stimulation (protein, UniProt O35235 139-316, looked up)
Tumor necrosis factor ligand …: FSGAPAMMEGSWLDVAQRGKPEAQPFAHLTINAASIPSGSHKVTLSSWYHDRGWAKISNMTLSNGKLRVNQDGFYYLYANICFRHHETSGSVPTDYLQLMVYVVKTSIKIPSSHNLMKGGSTKNWSGNSEFHFYSINVGGFFKLRAGEEISIQVSNPSLLDPDQDATYFGAFKVQDID
Regarding B1, the “anchorage-independent growth in soft agar” value in assay [1] is “induced growth of SKBR3 cells in soft agar; also recorded: macroscopic colonies formed”.
